Data from patent US12568991B2, “Method for increasing the solubility and stability of organic compositions” (GLANBIA DAIRY NUTRITION LIMITED, priority 2017, dated 2026).

Legend:
[1] = format: physicochemical; settings: pH 7
Source text: Creatine Formulation: A solution of surfactants was made by combining soy lecithin with 48-98% acetone insolubility (3.1 to 9.9 g/100 g as in dispersion or 9.2 to 16.9 g/100 g as in powder) in water (pH 7.0), with maltodextrin MD040 (Maltrin®, Grain Processing Corporation, 4.9-10.2 g/100 g as in dispersion or 12.4-17.7 g/100 g as in powder). Then the micronized (200 Mesh size or 70-80 μm) creatine monohydrate (23.7-40.2 g/100 g as in dispersion or 65.2-79.3 g/100 g as in powder), along with Alpha cyclodextrin (Cavamax®, Wacker Chemie AG, 0-0.26 g/100 g as in dispersion or 0-0.4 g/100 g as in powder), was added to the above solution of surfactants. After premixing the dispersion, it was run through the homogenizer at 500 psi/34 bar, 1 pass. The dispersion thus formed was heated to a pasteurization temperature of 72° C., for 30 min. Finally, this dispersion was spray dried, with TInlet=220-230° C. and TOutlet=92-100° C. Creatine shelf stability was evaluated at pH 3.3-7.0.
For the shelf-stability study, the corresponding spray-dried powders produced from the slurry were used for determining the chemical stability of limited-solubility organic compounds either in a neutral pH (6.8-7.0) drink or an acidic pH (3.3-3.7) drink formula. For this determination, the limited-solubility organic compound-containing beverages were prepared at their respective pHs, using spray-dried powder. […]

[2] = individuals who have high cholesterol; cited from earlier work

Structure (SMILES) | creatine degradation curve (y=% creatine levels, after (x) number of days) [1] | reduction of cholesterol [2]
CN(CC(=O)O)C(=N)N.O [creatine monohydrate] | y=48.294e^−0.024x | 
CN(CC(=O)O)C(=N)N [creatine] |  | up to 15%
